Assay results published in patent US20200085776A1, “Methods of Reducing C-Reactive Protein and/or Treating Cardiovascular Disease” (CARDAX, INC., priority 2018, published 2020).
Where two headings read alike, the source gives them in different places.

Experiments:
Format in all cases: in vivo, human
[1] = tested on: Oxidized LDL; test: Oxidized LDL, CHASE clinical study; parameters: Oxidized LDL Mean (SD) / Oxidized LDL Median / Oxidized LDL Min / Oxidized LDL Max / Oxidized LDL V2 to V6 Change Median / Oxidized LDL V2 to V6 Change Max: unit not given here; conditions: all subjects; for Oxidized LDL V2 to V6 % Change Max / Oxidized LDL V2 to V6 % Change Mean (SD) / Oxidized LDL V2 to V6 % Change Median / Oxidized LDL V2 to V6 % Change Min / Oxidized LDL V2 to V6 Change Max / Oxidized LDL V2 to V6 Change Mean (SD) / Oxidized LDL V2 to V6 Change Median / Oxidized LDL V2 to V6 Change Min: baseline to Week 12
From the text: Samples shall be obtained for TNF-α, IL-1β, IL-6, IFN-γ, and oxLDL at V2, V4, V6, and V8 I.
(§1) Table 7M provides the changes in lipid levels (mg/dL) (V2 to V6) for subjects.

[2] = Astaxanthin levels in plasma (PK), CHASE clinical study; conditions: for concentration at 12 week: human, oral
From the text: Blood samples shall be collected for astaxanthin analysis at V2, V4, V6, and V8.
The approximate time of the most recent dose prior to PK sampling shall be documented. PK sampling is sparse, sample acquisition in relationship to the most recent dose will vary, and formal PK calculations (e.g., Tmax, Cmax, T1/2, AUC) are not possible from the collections scheduled. Analysis will consist of a tabular listing and comparison by treatment group with calculation of the mean, median, standard deviation, maximum, and minimum at the nominal visits. Sub-analysis by subject demographic and clinical characteristics (e.g., gender, age, weight, and smoking status) may be performed at the discretion of the Sponsor.
PK samples will be collected into a 6.0 mL K2EDTA tube, gently inverted sufficient times to mix the sample and anticoagulant, and placed in an ice bath for 15 minutes.
The blood samples will be centrifuged at 3500 rpm for ten minutes at room temperature for 10 minutes. Any hemolyzed or clotted samples will be documented in the study data.
All resultant plasma will be split into two approximately equal aliquots and frozen at −60 to −90° C. Samples may be initially placed on dry ice prior to being stored in the appropriate freezer.

[3] = tested on: Cholesterol; test: Fasting lipid panel: total cholesterol, CHASE clinical study; conditions: for Cholesterol V2 to V6 % Change Max / Cholesterol V2 to V6 % Change Mean (SD) / Cholesterol V2 to V6 % Change Median / Cholesterol V2 to V6 % Change Min / Cholesterol V2 to V6 Change Max / Cholesterol V2 to V6 Change Mean (SD) / Cholesterol V2 to V6 Change Median / Cholesterol V2 to V6 Change Min: baseline to Week 12
From the text: Blood samples shall be obtained under fasted conditions for a lipid panel at V2, V4, V6, V7, and V8. This panel shall include total cholesterol, LDL-C, VLDL-C, HDL-C, and triglycerides. A minimum eight-hour fast (water allowed) is required for the lipid panel.
Fasting lipid profiles and fasting chemistry panels may be obtained within the visit time window on a day separate from the scheduled office visit, within two days before or after the other study procedures. A minimum of eight hours fasted (water allowed ad lib) is required.
as §1

[4] = Group X 12 mg BID, V2 baseline pre-dose
[5] = Group Z 48 mg BID, V2 baseline pre-dose
[6] = Group X 12 mg BID, V2 baseline pre-dose, BQL (less than 9.77 ng/mL) treated as 4.885
[7] = Group Z 48 mg BID, V2 baseline pre-dose, BQL (less than 9.77 ng/mL) treated as 4.885
[8] = Group X 12 mg BID, V2 baseline pre-dose, all subjects
[9] = Group X 12 mg BID, V2 baseline pre-dose, subjects with hyperlipidemia
[10] = Group X 12 mg BID, V6 Week 12, all subjects
[11] = Group X 12 mg BID, V6 Week 12, subjects with hyperlipidemia
[12] = Group X 12 mg BID, all subjects
[13] = Group X 12 mg BID, subjects with hyperlipidemia
[14] = Group Z 48 mg BID, V2 baseline pre-dose, all subjects
[15] = Group Z 48 mg BID, V2 baseline pre-dose, subjects with hyperlipidemia
[16] = Group Z 48 mg BID, V6 Week 12, all subjects
[17] = Group Z 48 mg BID, V6 Week 12, subjects with hyperlipidemia
[18] = Group Z 48 mg BID, all subjects
[19] = Group Z 48 mg BID, subjects with hyperlipidemia

astaxanthin levels Max [2, 6]: 4.89, 4.89 ng/mL
astaxanthin levels Mean (SD) [2, 6]: 4.89 (0.00) ng/mL
astaxanthin levels Median [2, 6]: 4.89 ng/mL
astaxanthin levels Min [2, 6]: 4.89, 4.89 ng/mL
astaxanthin levels Max ([2]; Group X 12 mg BID, V6 Week 12): 1282 ng/mL
astaxanthin levels Min ([2]; Group X 12 mg BID, V6 Week 12): 190.9 ng/mL
astaxanthin levels Max [2, 7]: 221.0 ng/mL
astaxanthin levels Mean (SD) [2, 7]: 17.12 (49.44) ng/mL
astaxanthin levels Median [2, 7]: 4.89 ng/mL
astaxanthin levels Min [2, 7]: 4.89 ng/mL
astaxanthin levels Max ([2]; Group Z 48 mg BID, V6 Week 12): 7030 ng/mL
astaxanthin levels Min ([2]; Group Z 48 mg BID, V6 Week 12): 409.0 ng/mL
concentration at 12 week ([2]; 12 mg, Group X 12 mg BID, V6 Week 12, read-out: astaxanthin levels Mean (SD)): 785 ng/mL
concentration at 12 week ([2]; 12 mg, Group X 12 mg BID, V6 Week 12, read-out: astaxanthin levels Median): 790 ng/mL
concentration at 12 week ([2]; 48 mg, Group Z 48 mg BID, V6 Week 12, read-out: astaxanthin levels Mean (SD)): 2590 ng/mL
concentration at 12 week ([2]; 48 mg, Group Z 48 mg BID, V6 Week 12, read-out: astaxanthin levels Median): 2180 ng/mL
SMILES: CC1=C(/C=C/C(C)=C/C=C/C(C)=C/C=C/C=C(C)/C=C/C=C(C)/C=C/C2=C(C)C(=O)C(O)CC2(C)C)C(C)(C)CC(O)C1=O (stereo not shown) [Astaxanthin, astaxanthin]
Oxidized LDL Max [1, 4]: 87.00
Oxidized LDL Mean (SD) [1, 4]: 51.64 (18.34)
Oxidized LDL Median [1, 4]: 49.00
Oxidized LDL Min [1, 4]: 29.00
Oxidized LDL Max ([1]; Group X 12 mg BID, V6 Week 12): 85.00
Oxidized LDL Mean (SD) ([1]; Group X 12 mg BID, V6 Week 12): 51.18 (17.62)
Oxidized LDL Median ([1]; Group X 12 mg BID, V6 Week 12): 46.00
Oxidized LDL Min ([1]; Group X 12 mg BID, V6 Week 12): 34.00
Oxidized LDL V2 to V6 % Change Max ([1]; Group X 12 mg BID): 17.24%
Oxidized LDL V2 to V6 % Change Mean (SD) ([1]; Group X 12 mg BID): 0.41 (12.46) %
Oxidized LDL V2 to V6 % Change Median ([1]; Group X 12 mg BID): 2.86%
Oxidized LDL V2 to V6 % Change Min ([1]; Group X 12 mg BID): −26.0%
Oxidized LDL V2 to V6 Change Max ([1]; Group X 12 mg BID): 6.00
Oxidized LDL V2 to V6 Change Mean (SD) ([1]; Group X 12 mg BID): −0.45 (5.65)
Oxidized LDL V2 to V6 Change Median ([1]; Group X 12 mg BID): 1.00
Oxidized LDL V2 to V6 Change Min ([1]; Group X 12 mg BID): −13.0
Oxidized LDL Max [1, 5]: 86.00
Oxidized LDL Mean (SD) [1, 5]: 55.00 (17.80)
Oxidized LDL Median [1, 5]: 59.00
Oxidized LDL Min [1, 5]: 24.00
Oxidized LDL Max ([1]; Group Z 48 mg BID, V6 Week 12): 77.00
Oxidized LDL Mean (SD) ([1]; Group Z 48 mg BID, V6 Week 12): 46.22 (15.21)
Oxidized LDL Median ([1]; Group Z 48 mg BID, V6 Week 12): 48.00
Oxidized LDL Min ([1]; Group Z 48 mg BID, V6 Week 12): 25.00
Oxidized LDL V2 to V6 % Change Max ([1]; Group Z 48 mg BID): 24.39%
Oxidized LDL V2 to V6 % Change Mean (SD) ([1]; Group Z 48 mg BID): −12.7 (19.64) %
Oxidized LDL V2 to V6 % Change Median ([1]; Group Z 48 mg BID): −10.1%
Oxidized LDL V2 to V6 % Change Min ([1]; Group Z 48 mg BID): −43.8%
Oxidized LDL V2 to V6 Change Max ([1]; Group Z 48 mg BID): 10.00
Oxidized LDL V2 to V6 Change Mean (SD) ([1]; Group Z 48 mg BID): −8.22 (12.33)
Oxidized LDL V2 to V6 Change Median ([1]; Group Z 48 mg BID): −4.00
Oxidized LDL V2 to V6 Change Min ([1]; Group Z 48 mg BID): −36.0
Cholesterol Max [3, 8]: 342.0 mg/dL
Cholesterol Mean (SD) [3, 8]: 192.0 (65.49) mg/dL
Cholesterol Median [3, 8]: 180.0 mg/dL
Cholesterol Min [3, 8]: 113. mg/dL
Cholesterol Max [3, 9]: 342.0 mg/dL
Cholesterol Mean (SD) [3, 9]: 184.5 (73.91) mg/dL
Cholesterol Median [3, 9]: 164.0 mg/dL
Cholesterol Min [3, 9]: 113.0 mg/dL
Cholesterol Max [3, 10]: 339.0 mg/dL
Cholesterol Mean (SD) [3, 10]: 182.6 (70.21) mg/dL
Cholesterol Median [3, 10]: 163.0 mg/dL
Cholesterol Min [3, 10]: 117.0 mg/dL
Cholesterol Max [3, 11]: 339.0 mg/dL
Cholesterol Mean (SD) [3, 11]: 170.3 (74.95) mg/dL
Cholesterol Median [3, 11]: 137.5 mg/dL
Cholesterol Min [3, 11]: 117.0 mg/dL
Cholesterol V2 to V6 % Change Max [3, 12]: 6.67%
Cholesterol V2 to V6 % Change Mean (SD) [3, 12]: −5.34 (10.55) %
Cholesterol V2 to V6 % Change Median [3, 12]: −4.90%
Cholesterol V2 to V6 % Change Min [3, 12]: −25.0%
Cholesterol V2 to V6 Change Max [3, 12]: 17.00 mg/dL
Cholesterol V2 to V6 Change Mean (SD) [3, 12]: −9.45 (18.08) mg/dL
Cholesterol V2 to V6 Change Median [3, 12]: -7.00 mg/dL
Cholesterol V2 to V6 Change Min [3, 12]: -39.0 mg/dL
Cholesterol V2 to V6 % Change Max [3, 13]: 6.20%
Cholesterol V2 to V6 % Change Mean (SD) [3, 13]: −7.65 (11.10) %
Cholesterol V2 to V6 % Change Median [3, 13]: −6.92%
Cholesterol V2 to V6 % Change Min [3, 13]: −25.0%
Cholesterol V2 to V6 Change Max [3, 13]: 8.00 mg/dL
Cholesterol V2 to V6 Change Mean (SD) [3, 13]: −14.3 (17.60) mg/dL
Cholesterol V2 to V6 Change Median [3, 13]: -14.0 mg/dL
Cholesterol V2 to V6 Change Min [3, 13]: -39.0 mg/dL
Cholesterol Max [3, 14]: 316.0 mg/dL
Cholesterol Mean (SD) [3, 14]: 195.1 (57.82) mg/dL
Cholesterol Median [3, 14]: 190.0 mg/dL
Cholesterol Min [3, 14]: 121.0 mg/dL
Cholesterol Max [3, 15]: 316.0 mg/dL
Cholesterol Mean (SD) [3, 15]: 189.7 (58.32) mg/dL
Cholesterol Median [3, 15]: 173.0 mg/dL
Cholesterol Min [3, 15]: 121.0 mg/dL
Cholesterol Max [3, 16]: 284.0 mg/dL
Cholesterol Mean (SD) [3, 16]: 169.7 (45.52) mg/dL
Cholesterol Median [3, 16]: 160.5 mg/dL
Cholesterol Min [3, 16]: 104.0 mg/dL
Cholesterol Max [3, 17]: 284.0 mg/dL
Cholesterol Mean (SD) [3, 17]: 161.9 (46.52) mg/dL
Cholesterol Median [3, 17]: 151.0 mg/dL
Cholesterol Min [3, 17]: 104.0 mg/dL
Cholesterol V2 to V6 % Change Max [3, 18]: 15.86%
Cholesterol V2 to V6 % Change Mean (SD) [3, 18]: −8.52 (14.73) %
Cholesterol V2 to V6 % Change Median [3, 18]: −8.29%
Cholesterol V2 to V6 % Change Min [3, 18]: −38.0%
Cholesterol V2 to V6 Change Max [3, 18]: 32.00 mg/dL
Cholesterol V2 to V6 Change Mean (SD) [3, 18]: −18.6 (31.99) mg/dL
Cholesterol V2 to V6 Change Median [3, 18]: -13.5 mg/dL
Cholesterol V2 to V6 Change Min [3, 18]: -92.0 mg/dL
Cholesterol V2 to V6 % Change Max [3, 19]: 15.86%
Cholesterol V2 to V6 % Change Mean (SD) [3, 19]: −9.11 (16.06) %
Cholesterol V2 to V6 % Change Median [3, 19]: −8.48%
Cholesterol V2 to V6 % Change Min [3, 19]: −38.0%
Cholesterol V2 to V6 Change Max [3, 19]: 32.00 mg/dL
Cholesterol V2 to V6 Change Mean (SD) [3, 19]: −18.8 (33.97) mg/dL
Cholesterol V2 to V6 Change Median [3, 19]: -13.5 mg/dL
Cholesterol V2 to V6 Change Min [3, 19]: -92.0 mg/dL
